Source: patent US20090061452A1, “Polymorphisms in the human genes for OCT 1 and their use in diagnostic and therapeutic applications” (Epidauros Biotechnologie AG, priority 2002, published 2009)
Substitutions are numbered along the chain they refer to. “Also recorded” adds a separate entry of the source.

Experiments:
[1] = target: T1, OCT1 mutant Gly401Ser (Homo sapiens, UniProt O15245, G401S); experiment: Cyanine863-inhibitable uptake in Xenopus oocytes expressing OCT1 mutant Gly401Ser
T1 sequence (O15245 1-554 G401S): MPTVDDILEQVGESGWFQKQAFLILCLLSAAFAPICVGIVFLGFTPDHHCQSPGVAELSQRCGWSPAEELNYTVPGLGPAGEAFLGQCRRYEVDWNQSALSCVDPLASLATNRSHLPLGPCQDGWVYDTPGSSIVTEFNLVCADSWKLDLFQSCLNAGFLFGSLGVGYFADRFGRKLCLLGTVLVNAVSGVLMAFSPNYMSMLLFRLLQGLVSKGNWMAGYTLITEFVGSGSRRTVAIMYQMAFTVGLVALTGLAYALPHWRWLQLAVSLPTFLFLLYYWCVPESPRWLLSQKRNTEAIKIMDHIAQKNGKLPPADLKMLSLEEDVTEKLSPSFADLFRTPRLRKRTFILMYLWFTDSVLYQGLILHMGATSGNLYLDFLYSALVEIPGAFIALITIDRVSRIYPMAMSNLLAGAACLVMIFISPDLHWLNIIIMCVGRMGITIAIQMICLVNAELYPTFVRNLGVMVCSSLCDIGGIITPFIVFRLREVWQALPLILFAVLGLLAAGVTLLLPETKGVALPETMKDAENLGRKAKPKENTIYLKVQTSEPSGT
Protocol: (§1) OCT1 wt and OCT1 mutants were expressed in Xenopus oocytes and analyzed side-by-side. Cyanine863-inhibitable uptake of radioactively labeled organic cations was measured over 30 min. a) Uptake of 0.1 μM [^3H]MPP by different mutants in comparison to OCT1. […] In different batches of oocytes, the cyanine-863-inhibited uptake of 0.1 μM [^3H]MPP expressed by OCT1 wt varied between 0.9 and 1.8 μmol×oocyte^−1×30 min^−1. […] MPP uptake was measured at 9 different MPP concentrations and K0.5 values were determined by fitting the Hill equation to the data. […] Mean values±SD of three experiments are presented. *P<0.05, **P<0.01, ***P<0.001.
(§2) After defolliculation, the oocytes were injected with 10 ng/oocycte of the respective cRNAs. […] Oocytes were incubated for 30 min with the indicated substrate concentrations in the absence or presence of 100 μM of the inhibitor cyanine863. The mutants were compared with the OCT1 wt in side-by-side experiments using oocytes from the same batch (Arndt, Am J. Physiol. Renal Physiol. 281 (2001), F454-468). Each data point corresponded to 8-10 oocytes. K0.5 values were estimated by fitting the Hill equation to the data. Mean values±SD are presented. Significance of differences was tested by unpaired Student t-tests.

[2] = target: T2, OCT1 mutant Cys88Arg (Homo sapiens, UniProt O15245, C88R); experiment: Cyanine863-inhibitable uptake in Xenopus oocytes expressing OCT1 mutant Cys88Arg
T2 sequence (O15245 1-554 C88R): T1 sequence (O15245 1-554 G401S) with C88R, S401G
Protocol: as §1, §2

[3] = target: T3, OCT1 mutant Arg61Cys (Homo sapiens, UniProt O15245, R61C); experiment: Cyanine863-inhibitable uptake in Xenopus oocytes expressing OCT1 mutant Arg61Cys; assay type: cell-based; conditions: 0.1 μM [3H]MPP, 30 min
T3 construct: expressed in transfected cells; host or cells: Xenopus laevis oocytes injected with cRNA transcribed from the pOG1 vector
T3 sequence (O15245 1-554 R61C): T1 sequence (O15245 1-554 G401S) with R61C, S401G

[4] = target: T4, OCT1 mutant Met420del (Homo sapiens, UniProt O15245, DEL420-420); experiment: Cyanine863-inhibitable uptake in Xenopus oocytes expressing OCT1 mutant Met420del; assay type: cell-based
T4 construct: expressed in transfected cells; host or cells: Xenopus laevis oocytes injected with cRNA transcribed from the pOG1 vector
T4 sequence (O15245 with tags, fused parts or gaps DEL420-420): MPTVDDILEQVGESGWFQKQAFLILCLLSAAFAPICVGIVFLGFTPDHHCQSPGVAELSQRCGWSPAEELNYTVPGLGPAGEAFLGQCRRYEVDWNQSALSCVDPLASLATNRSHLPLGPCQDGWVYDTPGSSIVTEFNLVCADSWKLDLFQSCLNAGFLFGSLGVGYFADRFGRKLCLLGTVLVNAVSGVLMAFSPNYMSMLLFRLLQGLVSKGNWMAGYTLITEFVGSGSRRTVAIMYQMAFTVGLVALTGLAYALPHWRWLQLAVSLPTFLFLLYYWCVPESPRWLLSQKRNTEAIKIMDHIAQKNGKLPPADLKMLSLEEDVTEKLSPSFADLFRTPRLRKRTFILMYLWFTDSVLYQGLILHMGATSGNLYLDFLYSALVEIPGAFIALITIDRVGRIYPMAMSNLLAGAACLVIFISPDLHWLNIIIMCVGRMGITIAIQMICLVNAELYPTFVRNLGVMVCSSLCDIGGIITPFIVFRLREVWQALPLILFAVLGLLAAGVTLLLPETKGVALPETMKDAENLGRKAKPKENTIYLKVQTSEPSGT

[5] = target: T5, OCT1 mutant Phe160Leu (Homo sapiens, UniProt O15245); experiment: Cyanine863-inhibitable uptake in Xenopus oocytes expressing OCT1 mutant Phe160Leu; assay type: cell-based
T5 construct: expressed in transfected cells; host or cells: Xenopus laevis oocytes injected with cRNA transcribed from the pOG1 vector
T5 sequence (O15245 1-554): T1 sequence (O15245 1-554 G401S) with S401G

[6] = Hill equation fit, 9 MPP concentrations

## NCCc1c[nH]c2ccc(O)cc12 [serotonin]
[1]; 1 μM [3H]serotonin
  uptake compared to wt, relative to reduction of MPP uptake: significantly less reduced
[2]; 1 μM [3H]serotonin
  uptake compared to wt, relative to reduction of MPP uptake: significantly less reduced

## C[n+]1ccc(-c2ccccc2)cc1 [MPP, 1-methyl-4-phenylpyridinium]
[1]; 0.1 μM [3H]MPP, 30 min
  uptake reduced by (compared to OCT1 wt): more than 98%
[3]
  uptake reduced by (compared to OCT1 wt): 70%
[4]; 0.1 μM [3H]MPP, 30 min
  uptake compared to OCT1 wt: not significantly different from OCT1 wt
[4]; [6]
  half maximal concentration for substrate activation (K0.5) compared to wild-type: identical to wild-type
[4]; data not shown
  maximal expressed transport rates compared to wild-type: identical to wild-type
[2]; 0.1 μM [3H]MPP, 30 min
  uptake reduced by (compared to OCT1 wt): more than 98%
[5]; 0.1 μM [3H]MPP, 30 min
  uptake compared to OCT1 wt: not significantly different from OCT1 wt
[5]; [6]
  half maximal concentration for substrate activation (K0.5) compared to wild-type: similar; also recorded: identical to wild-type
[5]; data not shown
  maximal expressed transport rates compared to wild-type: identical to wild-type
[5]; n=3
  reduced Vmax value compared to OCT1 wt: 32±16%
